Measured values as given in patent US12545639B2, “3-substituted phenylamidine compounds, preparation and use thereof” (PI INDUSTRIES LTD., priority 2019, dated 2026).

Key:
Pyricularia oryzae = assay: microbe, parasite or virus in culture; type: cell-based; conditions: 168 h, read-out: control compared to the untreated check (radial growth)
Rhizoctonia solani = Rhizoctonia solani (rice sheath blight/potato black scurf) in vitro test, radial growth on potato dextrose agar; type: cell-based; conditions: 168 h, 300 ppm in potato dextrose agar, 25° C., 60% relative humidity, seven days, read-out: control compared to the untreated check (radial growth)
Botrytis cinerea = Botrytis cinerea (gray mold) in vitro test, radial growth on potato dextrose agar; type: cell-based; conditions: 168 h, 300 ppm in potato dextrose agar, 22° C., 90% relative humidity, seven days, read-out: control compared to the untreated check (radial growth)
Alternaria solani = Alternaria solani (early blight of tomato/potato) in vitro test, radial growth on potato dextrose agar; type: cell-based; conditions: 168 h, 300 ppm in potato dextrose agar, 25° C., 60% relative humidity, seven days, read-out: control compared to the untreated check (radial growth)
Colletotrichum capsici = Colletotrichum capsici (anthracnose) in vitro test, radial growth on potato dextrose agar; type: cell-based; conditions: Colletotrichum truncatum, 168 h; 300 ppm in potato dextrose agar; 25° C., 60% relative humidity, seven days; read-out: control compared to the untreated check (radial growth)
[1] = tested on: Septoria lycopersici/Corynespora cassicola (CORYCA); assay: Septoria lycopersici/Corynespora cassicola (CORYCA) (leaf spot of tomato) in vitro test, radial growth on potato dextrose agar; type: cell-based; conditions: 168 h, 300 ppm in potato dextrose agar, 25° C., 70% relative humidity, seven days, read-out: control compared to the untreated check (radial growth)
Fusarium culmorum = Fusarium culmorum (foot rot of cereals) in vitro test, radial growth on potato dextrose agar; type: cell-based; conditions: 168 h, 300 ppm in potato dextrose agar, 25° C., 60% relative humidity, seven days, read-out: control compared to the untreated check (radial growth)
Protocol: Compounds were dissolved in 0.3% dimethyl sulfoxide and then added to potato dextrose agar medium just prior to dispensing it into petri dishes. 5 mL medium with the compound in the desired concentration was dispensed into 60 mm sterile petri-plates. After solidification each plate was seeded with a 5 mm size mycelial disc taken from the periphery of an actively growing virulent culture plate. Plates were incubated in growth chambers at 25° C. temperature and 60% relative humidity for seven days and then the radial growth was measured and compared to that of the untreated control.

Phakopsora pachyrhizi = Phakopsora pachyrhizi test in soybean, preventive, in vivo on plants; conditions: in Glycine max, read-out: Efficacy (% control), disease severity compared to the untreated check

CCN(C)C=Nc1cc(Cl)cc(Cc2ccc(F)cc2)c1C [Compound 124, N′-(5-chloro-3-(4-fluorobenzyl)-2-methylphenyl)-N-ethyl-N-methylformimidamide]
≥ 70%: inhibition of growth at 300 ppm (Pyricularia oryzae) | inhibition of growth at 300 ppm (Rhizoctonia solani) | inhibition of growth at 300 ppm (Botrytis cinerea) | inhibition of growth at 300 ppm (Alternaria solani) | inhibition of growth at 300 ppm (Colletotrichum capsici) | inhibition of growth at 300 ppm [1] | inhibition of growth at 300 ppm (Fusarium culmorum) | pest or weed control at 500 ppm (Phakopsora pachyrhizi)

CCN(C)C=Nc1cc(C)cc(Nc2ccc(F)c(OC)c2)c1Cl [Compound 275, N′-(2-chloro-3-((4-fluoro-3-methoxyphenyl)amino)-5-methylphenyl)-N-ethyl-N-methylformimidamide]
≥ 70%: inhibition of growth at 300 ppm (Pyricularia oryzae) | inhibition of growth at 300 ppm (Rhizoctonia solani) | inhibition of growth at 300 ppm (Alternaria solani) | inhibition of growth at 300 ppm (Colletotrichum capsici) | inhibition of growth at 300 ppm [1] | inhibition of growth at 300 ppm (Fusarium culmorum) | pest or weed control at 500 ppm (Phakopsora pachyrhizi)

CCN(C)C=Nc1cc(C)cc(Cc2ccccc2Cl)c1C [Compound 220, N′-(3-(2-chlorobenzyl)-2,5-dimethylphenyl)-N-ethyl-N-methylformimidamide]
≥ 70%: inhibition of growth at 300 ppm (Pyricularia oryzae) | inhibition of growth at 300 ppm (Rhizoctonia solani) | inhibition of growth at 300 ppm (Botrytis cinerea) | inhibition of growth at 300 ppm (Alternaria solani) | inhibition of growth at 300 ppm (Colletotrichum capsici) | inhibition of growth at 300 ppm [1] | inhibition of growth at 300 ppm (Fusarium culmorum) | pest or weed control at 500 ppm (Phakopsora pachyrhizi)

CCN(C)C=Nc1cc(C)cc(Nc2ccc(Cl)cc2)c1Cl [Compound 59, N′-(2-chloro-3-((4-chlorophenyl)amino)-5-methylphenyl)-N-ethyl-N-methylformimidamide]
≥ 70%: inhibition of growth at 300 ppm (Pyricularia oryzae) | inhibition of growth at 300 ppm (Rhizoctonia solani) | inhibition of growth at 300 ppm (Botrytis cinerea) | inhibition of growth at 300 ppm (Alternaria solani) | inhibition of growth at 300 ppm (Colletotrichum capsici) | inhibition of growth at 300 ppm [1] | inhibition of growth at 300 ppm (Fusarium culmorum) | pest or weed control at 500 ppm (Phakopsora pachyrhizi)

CCN(C)C=Nc1cc(Cl)cc(Cc2ccccc2C)c1C [Compound 88, N′-(5-chloro-2-methyl-3-(2-methylbenzyl)phenyl)-N-ethyl-N-methylformimidamide]
≥ 70%: inhibition of growth at 300 ppm (Pyricularia oryzae) | inhibition of growth at 300 ppm (Rhizoctonia solani) | inhibition of growth at 300 ppm (Botrytis cinerea) | inhibition of growth at 300 ppm (Alternaria solani) | inhibition of growth at 300 ppm (Colletotrichum capsici) | inhibition of growth at 300 ppm (Fusarium culmorum) | pest or weed control at 500 ppm (Phakopsora pachyrhizi)

CCN(C)C=Nc1cc(C)cc(Nc2cccc(F)c2)c1Cl [Compound 35, N′-(2-chloro-3-((3-fluorophenyl)amino)-5-methylphenyl)-N-ethyl-N-methylformimidamide]
≥ 70%: inhibition of growth at 300 ppm (Pyricularia oryzae) | inhibition of growth at 300 ppm (Rhizoctonia solani) | inhibition of growth at 300 ppm (Botrytis cinerea) | inhibition of growth at 300 ppm (Alternaria solani) | inhibition of growth at 300 ppm (Colletotrichum capsici) | inhibition of growth at 300 ppm [1] | inhibition of growth at 300 ppm (Fusarium culmorum)

CCN(C)C=Nc1cc(Cl)cc(Nc2cccc(Cl)c2)c1C [Compound 163, N′-(5-chloro-3-((3-chlorophenyl)amino)-2-methylphenyl)-N-ethyl-N-methylformimidamide]
≥ 70%: inhibition of growth at 300 ppm (Pyricularia oryzae) | inhibition of growth at 300 ppm (Rhizoctonia solani) | inhibition of growth at 300 ppm (Botrytis cinerea) | inhibition of growth at 300 ppm (Alternaria solani) | inhibition of growth at 300 ppm (Colletotrichum capsici) | inhibition of growth at 300 ppm [1] | inhibition of growth at 300 ppm (Fusarium culmorum)

CCN(C)C=Nc1cc(C)cc(Cc2ccccc2C)c1C [Compound 4, N′-(2,5-dimethyl-3-(2-methylbenzyl)phenyl)-N-ethyl-N-methylformimidamide]
≥ 70%: inhibition of growth at 300 ppm (Pyricularia oryzae) | inhibition of growth at 300 ppm (Rhizoctonia solani) | inhibition of growth at 300 ppm (Botrytis cinerea) | inhibition of growth at 300 ppm (Alternaria solani) | inhibition of growth at 300 ppm (Colletotrichum capsici) | inhibition of growth at 300 ppm [1] | inhibition of growth at 300 ppm (Fusarium culmorum)

CCN(C)C=Nc1cc(F)cc(Nc2cc(Cl)ccc2C)c1C [Compound 116, N′-(3-((5-chloro-2-methylphenyl)amino)-5-fluoro-2-methylphenyl)-N-ethyl-N-methylformimidamide]
≥ 70%: inhibition of growth at 300 ppm (Pyricularia oryzae) | inhibition of growth at 300 ppm (Alternaria solani) | inhibition of growth at 300 ppm (Colletotrichum capsici) | inhibition of growth at 300 ppm [1] | inhibition of growth at 300 ppm (Fusarium culmorum) | pest or weed control at 500 ppm (Phakopsora pachyrhizi)

CCN(C)C=Nc1cc(C)cc(Nc2ccc(C(C)(C)C)cc2)c1Cl [Compound 25, N′-(3-((4-(tert-butyl)phenyl)amino)-2-chloro-5-methylphenyl)-N-ethyl-N-methylformimidamide]
≥ 70%: inhibition of growth at 300 ppm (Pyricularia oryzae) | inhibition of growth at 300 ppm (Rhizoctonia solani) | inhibition of growth at 300 ppm (Botrytis cinerea) | inhibition of growth at 300 ppm (Alternaria solani) | inhibition of growth at 300 ppm (Colletotrichum capsici) | inhibition of growth at 300 ppm [1] | inhibition of growth at 300 ppm (Fusarium culmorum)

CCN(C)C=Nc1cc(Cl)cc(Nc2ccc(OC)cc2)c1C [Compound 162, N′-(5-chloro-3-((4-methoxyphenyl)amino)-2-methylphenyl)-N-ethyl-N-methylformimidamide]
≥ 70%: inhibition of growth at 300 ppm (Pyricularia oryzae) | inhibition of growth at 300 ppm (Rhizoctonia solani) | inhibition of growth at 300 ppm (Alternaria solani) | inhibition of growth at 300 ppm (Colletotrichum capsici) | inhibition of growth at 300 ppm [1] | inhibition of growth at 300 ppm (Fusarium culmorum)

CCN(C)C=Nc1cc(C)cc(Cc2cccc(Cl)c2)c1C [Compound 3, N′-(3-(3-chlorobenzyl)-2,5-dimethylphenyl)-N-ethyl-N-methylformimidamide]
≥ 70%: inhibition of growth at 300 ppm (Pyricularia oryzae) | inhibition of growth at 300 ppm (Rhizoctonia solani) | inhibition of growth at 300 ppm (Botrytis cinerea) | inhibition of growth at 300 ppm (Alternaria solani) | inhibition of growth at 300 ppm (Colletotrichum capsici) | inhibition of growth at 300 ppm [1] | inhibition of growth at 300 ppm (Fusarium culmorum)

CCN(C)C=Nc1cc(C)cc(Cc2cccc(F)c2)c1C [Compound 5, N-ethyl-N′-(3-(3-fluorobenzyl)-2,5-dimethylphenyl)-N-methylformimidamide]
≥ 70%: inhibition of growth at 300 ppm (Pyricularia oryzae) | inhibition of growth at 300 ppm (Rhizoctonia solani) | inhibition of growth at 300 ppm (Botrytis cinerea) | inhibition of growth at 300 ppm (Alternaria solani) | inhibition of growth at 300 ppm (Colletotrichum capsici) | inhibition of growth at 300 ppm [1] | inhibition of growth at 300 ppm (Fusarium culmorum)

CCN(C)C=Nc1cc(F)cc(Nc2ccc(F)c(F)c2)c1C [Compound 73, N′-(3-((3,4-difluorophenyl)amino)-5-fluoro-2-methylphenyl)-N-ethyl-N-methylformimidamide]
≥ 70%: inhibition of growth at 300 ppm (Pyricularia oryzae) | inhibition of growth at 300 ppm (Rhizoctonia solani) | inhibition of growth at 300 ppm (Botrytis cinerea) | inhibition of growth at 300 ppm (Alternaria solani) | inhibition of growth at 300 ppm (Colletotrichum capsici) | inhibition of growth at 300 ppm [1] | inhibition of growth at 300 ppm (Fusarium culmorum)

CCN(C)C=Nc1cc(C)cc(Cc2ccccc2C)c1Cl [Compound 12, N′-(2-chloro-5-methyl-3-(2-methylbenzyl)phenyl)-N-ethyl-N-methylformimidamide]
≥ 70%: inhibition of growth at 300 ppm (Pyricularia oryzae) | inhibition of growth at 300 ppm (Rhizoctonia solani) | inhibition of growth at 300 ppm (Botrytis cinerea) | inhibition of growth at 300 ppm (Alternaria solani) | inhibition of growth at 300 ppm (Colletotrichum capsici) | inhibition of growth at 300 ppm [1] | inhibition of growth at 300 ppm (Fusarium culmorum)

CCN(C)C=Nc1cc(C)cc(Cc2ccccc2Cl)c1Cl [Compound 13, N′-(2-chloro-3-(2-chlorobenzyl)-5-methylphenyl)-N-ethyl-N-methylformimidamide]
≥ 70%: inhibition of growth at 300 ppm (Pyricularia oryzae) | inhibition of growth at 300 ppm (Rhizoctonia solani) | inhibition of growth at 300 ppm (Botrytis cinerea) | inhibition of growth at 300 ppm (Alternaria solani) | inhibition of growth at 300 ppm (Colletotrichum capsici) | inhibition of growth at 300 ppm [1] | inhibition of growth at 300 ppm (Fusarium culmorum)

CCN(C)C=Nc1cc(C)cc(N(C)c2cc(C)ccc2Cl)c1Cl [Compound 120, N′-(2-chloro-3-((2-chloro-5-methylphenyl)(methyl)amino)-5-methylphenyl)-N-ethyl-N-methylformimidamide]
≥ 70%: inhibition of growth at 300 ppm (Pyricularia oryzae) | inhibition of growth at 300 ppm (Alternaria solani) | inhibition of growth at 300 ppm (Colletotrichum capsici) | inhibition of growth at 300 ppm [1] | inhibition of growth at 300 ppm (Fusarium culmorum) | pest or weed control at 500 ppm (Phakopsora pachyrhizi)

CCN(C)C=Nc1cc(C)cc(Nc2ncc(Cl)cc2C)c1Cl [Compound 112, N′-(2-chloro-3-((5-chloro-3-methylpyridin-2-yl)amino)-5-methylphenyl)-N-ethyl-N-methylformimidamide]
≥ 70%: inhibition of growth at 300 ppm (Pyricularia oryzae) | inhibition of growth at 300 ppm (Alternaria solani) | inhibition of growth at 300 ppm (Colletotrichum capsici) | inhibition of growth at 300 ppm [1] | inhibition of growth at 300 ppm (Fusarium culmorum)

CCN(C)C=Nc1cc(Cl)cc(Cc2ccc(C)cc2)c1C [Compound 105, N′-(5-chloro-2-methyl-3-(4-methylbenzyl)phenyl)-N-ethyl-N-methylformimidamide]
≥ 70%: inhibition of growth at 300 ppm (Pyricularia oryzae) | inhibition of growth at 300 ppm (Rhizoctonia solani) | inhibition of growth at 300 ppm (Botrytis cinerea) | inhibition of growth at 300 ppm (Alternaria solani) | inhibition of growth at 300 ppm (Colletotrichum capsici) | inhibition of growth at 300 ppm (Fusarium culmorum) | pest or weed control at 500 ppm (Phakopsora pachyrhizi)

CCN(C)C=Nc1cc(C)cc(Cc2ccc(C)cc2)c1C [Compound 2, N′-(2,5-dimethyl-3-(4-methylbenzyl)phenyl)-N-ethyl-N-methylformimidamide]
≥ 70%: inhibition of growth at 300 ppm (Pyricularia oryzae) | inhibition of growth at 300 ppm (Rhizoctonia solani) | inhibition of growth at 300 ppm (Botrytis cinerea) | inhibition of growth at 300 ppm (Alternaria solani) | inhibition of growth at 300 ppm (Colletotrichum capsici) | inhibition of growth at 300 ppm [1] | inhibition of growth at 300 ppm (Fusarium culmorum)
